Experiments:
Assay type in all cases: physicochemical
[1] = Stability test in thermostated heaters at 40° C. and 75% R.H., active ingredient %; conditions: heat-sealed aluminium/aluminium bags
Method: (§1) In the following Tables 2-13, the percentage values are repotted which were obtained in the stability tests carried out on the products of examples 1-6. The stability tests were carried out in thermostated heaters at 40° C. and 75% R.H (tables 2-7) as well as 25° C. and 60% R.H. (tables 8-13), preserving the samples in heat-sealed aluminium/aluminium bags according to the following criteria: the active ingredient % was determined for every sampling point taken under consideration.

[2] = Stability test in thermostated heaters at 25° C. and 60% R.H., active ingredient %; conditions: heat-sealed aluminium/aluminium bags
Method: as §1

[3] = Degradation of the active stereoisomer S,S at 40° C. and 75% R.H.
Method: (§2) In the following Tables 14-25, the percentage values are reported of the degradation of the active stereoisomer S,S calculated at 40° C. and 75% R.H. (Tables 14-19) and at 25° C. and 65% R.H.

[4] = Degradation of the active stereoisomer S,S at 25° C. and 65% R.H.
Method: as §2

[5] = Moisture % K.F. of the stability samples; conditions: sample used in the stability test
Method: as §1, with “the active ingredient % was determined for every sampling point taken under consideration.” left out

Row | SMILES | stability test percentage value (active ingredient %), 30 days [1] [%] | stability test percentage value (active ingredient %), 60 days [1] [%] | stability test percentage value (active ingredient %), 90 days [1] [%] | stability test percentage value (active ingredient %), 120 days [1] [%] | stability test percentage value (active ingredient %), 180 days [1] [%] | stability test percentage value (active ingredient %), 30 days [2] [%] | stability test percentage value (active ingredient %), 90 days [2] [%] | stability test percentage value (active ingredient %), 180 days [2] [%] | stability test percentage value (active ingredient %), 360 days [2] [%] | stability test percentage value (active ingredient %), 720 days [2] [%] | percentage of active S,S stereoisomer remaining ([3]; 30 days) [%] | percentage of active S,S stereoisomer remaining ([3]; 60 days) [%] | percentage of active S,S stereoisomer remaining ([3]; 90 days) [%] | percentage of active S,S stereoisomer remaining ([3]; 120 days) [%] | percentage of active S,S stereoisomer remaining ([3]; 180 days) [%] | percentage of active S,S stereoisomer remaining ([3]; T = 0) [%] | percentage of the active S,S stereoisomer remaining ([4]; 30 days) [%] | percentage of the active S,S stereoisomer remaining ([4]; 90 days) [%] | percentage of the active S,S stereoisomer remaining ([4]; 180 days) [%] | percentage of the active S,S stereoisomer remaining ([4]; 360 days) [%] | other results
1 | C[S+](CCC(N)C(=O)[O-])C[C@H]1O[C@@H](n2cnc3c(N)ncnc32)[C@H](O)[C@@H]1O.C[S+](CCC(N)C(=O)[O-])C[C@H]1O[C@@H](n2cnc3c(N)ncnc32)[C@H](O)[C@@H]1O.Cl.[Cl-].[Cl-].[Mg+2] (some centres unmarked) [SAMe•0.5HCl•0.5MgCl2] | 0.56 | 0.87 | 1.45 | 1.99 | 2.67 | 0.35 | 0.43 | 0.76 | 0.90 | 1.07 | 92.5 | 89.8 | 84.5 | 82.6 | 76.6 | 98.9 | 96.5 | 94.8 | 93.7 | 92.6 | percentage of the active S,S stereoisomer remaining ([4]; 720 days): 89.5%; percentage of the active S,S stereoisomer remaining ([4]; T = 0): 98.9%; Moisture % K.F. [5]: 0.54%
2 | C[S+](CCC(N)C(=O)[O-])C[C@H]1O[C@@H](n2cnc3c(N)ncnc32)[C@H](O)[C@@H]1O.C[S+](CCC(N)C(=O)[O-])C[C@H]1O[C@@H](n2cnc3c(N)ncnc32)[C@H](O)[C@@H]1O.O=S(=O)(O)O.O=S(=O)([O-])[O-].[Mg+2] (some centres unmarked) [SAMe•0.5H2SO4•0.5Mg2SO4•0.4H2O] | 0.57 | 0.65 | 0.96 | 1.40 | 2.18 | 0.23 | 0.45 | 0.65 | 0.87 | 0.99 | 90.8 | 88.8 | 85.6 | 82.6 | 78.6 | 98.2 | 97.8 | 96.8 | 95.6 | 92.6 | percentage of the active S,S stereoisomer remaining ([4]; 720 days): 88.6%; percentage of the active S,S stereoisomer remaining ([4]; T = 0): 98.2%; Moisture % K.F. [5]: 0.57%
3 | C[S+](CCC(N)C(=O)[O-])C[C@H]1O[C@@H](n2cnc3c(N)ncnc32)[C@H](O)[C@@H]1O.O=S(=O)(O)O.O=S(=O)(O)O.[Cl-].[Cl-].[Mg+2] (some centres unmarked) [SAMe•2.0H2SO4•1.0MgCl2] | 0.19 | 0.34 | 0.82 | 1.12 | 1.87 | 0.10 | 0.18 | 0.25 | 0.49 | 0.62 | 89.3 | 85.3 | 83.3 | 89.3 | 75.3 | 97.2 | 96.3 | 95.3 | 93.3 | 91.0 | percentage of the active S,S stereoisomer remaining ([4]; 720 days): 88.0%; percentage of the active S,S stereoisomer remaining ([4]; T = 0): 97.2%; Moisture % K.F. [5]: 0.52%
4 | C[S+](CCC(N)C(=O)[O-])C[C@H]1O[C@@H](n2cnc3c(N)ncnc32)[C@H](O)[C@@H]1O.C[S+](CCC(N)C(=O)[O-])C[C@H]1O[C@@H](n2cnc3c(N)ncnc32)[C@H](O)[C@@H]1O.O=S(=O)(O)O.[Cl-].[Cl-].[Mg+2] (some centres unmarked) [SAMe•0.5H2SO4•0.5MgCl2] | 0.36 | 0.70 | 1.16 | 1.66 | 2.45 | 0.12 | 0.25 | 0.35 | 0.57 | 0.79 | 89.8 | 86.8 | 83.6 | 80.6 | 77.6 | 98.2 | 97.8 | 96.8 | 93.6 | 90.6 | percentage of the active S,S stereoisomer remaining ([4]; 720 days): 87.6%; percentage of the active S,S stereoisomer remaining ([4]; T = 0): 98.2%; Moisture % K.F. [5]: 0.61%
